Reference: US20260209249A1, “NOVEL TRICYCLIC COMPOUND AS KRAS G12D INHIBITOR, AND USE THEREOF” (SK Biopharmaceuticals Co., priority 2022, published 2026)

Tests used:
[1] = biological target: T1, GppNHp-KRAS G12D mutant protein (Homo sapiens, UniProt P01116, G12D); experiment: Differential scanning fluorimetry (DSF) binding affinity to GppNHp-KRAS G12D mutant protein; conditions: DSF thermal shift, 10 μM compound, 4 μg KRAS protein, 50 mM HEPES (pH 7.5)
T1 construct: purchased Daegu Gyeongbuk Medical Innovation Foundation (DGMIF), made to order
Description: (§1) Test Example 1: Measurement of Binding Affinity to KRAS G12D Mutant Protein The binding affinities of the compounds according to one embodiment of the present application to the KRAS G12D mutant protein were evaluated using differential scanning fluorimetry (DSF). Differential scanning fluorimetry (DSF) is a method used to study the stability of a protein upon binding to a compound. The experiment can be performed using a real-time PCR (RT-PCR) instrument, and is commonly employed as a screening technique for small-molecule compounds targeting specific proteins. As the temperature increases, folded proteins begin to unfold, during which a hydrophobic dye such as SYPRO Orange binds to the exposed hydrophobic regions of the protein, resulting in a measurable increase in fluorescence intensity (maximum absorption at 470 nm and maximum emission at 570 nm). Protein-compound binding is determined by the difference in the melting temperature (Tm) of the protein in the presence of the compound compared to the Tm in the absence of the compound, expressed as ΔTm. The binding affinity to the KRAS G12D mutant protein was measured using the Protein Thermal Shift Dye kit (#4461146, Applied Biosystems). The GDP-KRAS G12D mutant protein and GppNHp-KRAS G12D mutant protein used in the experiment were recombinant proteins synthesized by the Daegu Gyeongbuk Medical Innovation Foundation (DGMIF) upon request. The analysis of binding between the compound and the KRAS G12D mutant protein was performed according to the following reaction recipe: each test sample contained 4 μg of KRAS protein, 10 μM of the compound, and 2×SYPRO Orange dye. For the GDP-KRAS G12D protein samples, the buffer provided with the Protein Thermal Shift Dye kit was used, while for the GppNHp-KRAS G12D protein samples, 50 mM HEPES (pH 7.5) buffer was used. For the protein-compound binding reaction, the compound was added to the KRAS G12D mutant protein and reacted at room temperature for 30 minutes, followed by the addition of 2×SYPRO Orange dye. The temperature was increased to 25° C.-99° C. (0.05° C./s) using QuantStudiol RT-PCR instrument (Applied Biosystems), and fluorescence was measured using a ROX reporter with filters of 580±10 nm (excitation)/623±14 nm (emission). The measurements obtained at a compound concentration of 10 μM were analyzed using the Protein Thermal Shift Software program (version v1.4, Thermo Fisher Scientific), and the ΔTm (° C.) values, which indicate the binding affinity of the compound to the KRAS G12D mutant protein, were calculated. The DSF measurement results for the compounds according to one embodiment of the present application with respect to the KRAS G12D mutant protein are shown in Table 2.

[2] = biological target: T2, GDP-KRAS G12D mutant protein (Homo sapiens, UniProt P01116, G12D); experiment: Differential scanning fluorimetry (DSF) binding affinity to GDP-KRAS G12D mutant protein; conditions: DSF thermal shift, 10 μM compound, 4 μg KRAS protein
T2 construct: purchased Daegu Gyeongbuk Medical Innovation Foundation (DGMIF), made to order
Description: as §1

SMILES | GppNHp-KRAS G12D (ΔTmD, ° C.) [1] [°C] | GDP-KRAS G12D (ΔTmD, ° C.) [2] [°C]
C#Cc1c(F)ccc2cc(O)cc(-c3cc4nc(OCC5(CN6CCC[C@H](F)C6)CC5)nc(N5C[C@H]6CC[C@@H](C5)N6)c4n4ccnc34)c12 [Example 31, 4-(1-((1R,5S)-3,8-diazabicyclo[3.2.1]octan-3-yl)-3-((1-(((S)-3-fluoropiperidin-1-yl)methyl)cyclopropyl)methoxy)imidazo[1′,2′:1,6]pyrido[3,2-d]pyrimidin-6-yl)-5-ethynyl-6-fluoronaphthalen-2-ol] | 2.22 | 7.82
C#Cc1c(F)ccc2cc(O)cc(-c3cc4nc(OC[C@]56CC(=C)CN5C[C@@H](F)C6)nc(N5C[C@H]6CC[C@@H](C5)N6)c4n4ccnc34)c12 [Example 32, 4-(1-((1R,5S)-3,8-diazabicyclo[3.2.1]octan-3-yl)-3-(((2S,7aR)-2-fluoro-6-methylenetetrahydro-1H-pyrrolizin-7a(5H)-yl)methoxy)imidazo[1′,2′:1,6]pyrido[3,2-d]pyrimidin-6-yl)-5-ethynyl-6-fluoronaphthalen-2-ol] | 4.04 | 9.05
C#Cc1c(F)ccc2cc(O)cc(-c3cc4nc(OC[C@]56CCCN5CC(=C)C6)nc(N5C[C@H]6CC[C@@H](C5)N6)c4n4ccnc34)c12 [Example 33, 4-(1-((1R,5S)-3,8-diazabicyclo[3.2.1]octan-3-yl)-3-(((R)-2-methylenetetrahydro-1H-pyrrolizin-7a(5H)-yl)methoxy)imidazo[1′,2′:1,6]pyrido[3,2-d]pyrimidin-6-yl)-5-ethynyl-6-fluoronaphthalen-2-ol] | 3.59 | 7.42
C#Cc1c(F)ccc2cc(O)cc(-c3cc4nc(OCC5(CN6CCCC6)CC5)nc(N5C[C@H]6CC[C@@H](C5)N6)c4n4ccnc34)c12 [Example 35, 4-(1-((1R,5S)-3,8-diazabicyclo[3.2.1]octan-3-yl)-3-((1-(pyrrolidin-1-ylmethyl)cyclopropyl)methoxy)imidazo[1′,2′:1,6]pyrido[3,2-d]pyrimidin-6-yl)-5-ethynyl-6-fluoronaphthalen-2-ol] | 2.68 | 8.91
C#Cc1c(F)ccc2cc(N)cc(-c3cc4nc(OC[C@@]56CCCN5C/C(=C\F)C6)nc(N5C[C@H]6CC[C@@H](C5)N6)c4n4ccnc34)c12 [Example 36, 4-(1-((1R,5S)-3,8-diazabicyclo[3.2.1]octan-3-yl)-3-(((S,Z)-2-(fluoromethylene)tetrahydro-1H-pyrrolizin-7a(5H)-yl)methoxy)imidazo[1′,2′:1,6]pyrido[3,2-d]pyrimidin-6-yl)-5-ethynyl-6-fluoronaphthalen-2-amine] | 3.42 | 7.57
C#Cc1c(F)ccc2cc(O)cc(-c3cc4nc(OCC5(CN6CC[C@@H](F)C6)CCC5)nc(N5C[C@H]6CC[C@@H](C5)N6)c4n4ccnc34)c12 [Example 40, 4-(1-((1R,5S)-3,8-diazabicyclo[3.2.1]octan-3-yl)-3-((1-(((R)-3-fluoropyrrolidin-1-yl)methyl)cyclobutyl)methoxy)imidazo[1′,2′:1,6]pyrido[3,2-d]pyrimidin-6-yl)-5-ethynyl-6-fluoronaphthalen-2-ol] | 0.61 | 5.95
Cc1cc2c(o1)c(-c1cc(N)ccc1C(F)(F)F)c(F)c1nc(OC[C@@]34CCCN3C[C@H](F)C4)nc(N3CC4CCC(C3)N4)c12 [Example 49, 3-(1-((1R,5S)-3,8-diazabicyclo[3.2.1]octan-3-yl)-5-fluoro-3-(((2R,7aS)-2-fluorotetrahydro-1H-pyrrolizin-7a(5H)-yl)methoxy)-8-methylfuro[3,2-n]quinazolin-6-yl)-4-(trifluoromethyl)aniline] | 0.73 | 1.92
